Measured values reported in PubChem BioAssay AID1645862 (Buhrlage Lab, Dana-Farber Cancer Institute and Novartis …, 2021).
pIC50: −log10 of the molar value. Activity calls are given as the source filed them. No rule for the calls is given here.

What follows are compounds tested against Ubiquitin carboxyl-terminal hydrolase 8 (Homo sapiens) (UniProt P40818) (assay: Ubiquitin-specific protease 8 inhibitors, concentration-effect, biochemical, validation of initial actives (AID 1645862;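 also: potency reflects inhibition of USP8 cleavage of a ubiquitin rhodamine substrate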)). Conditions: recombinant USP8 deubiquitinase activity assay.
Chain of Ubiquitin carboxyl-terminal hydrolase 8 (Homo sapiens) (P40818 whole entry, looked up): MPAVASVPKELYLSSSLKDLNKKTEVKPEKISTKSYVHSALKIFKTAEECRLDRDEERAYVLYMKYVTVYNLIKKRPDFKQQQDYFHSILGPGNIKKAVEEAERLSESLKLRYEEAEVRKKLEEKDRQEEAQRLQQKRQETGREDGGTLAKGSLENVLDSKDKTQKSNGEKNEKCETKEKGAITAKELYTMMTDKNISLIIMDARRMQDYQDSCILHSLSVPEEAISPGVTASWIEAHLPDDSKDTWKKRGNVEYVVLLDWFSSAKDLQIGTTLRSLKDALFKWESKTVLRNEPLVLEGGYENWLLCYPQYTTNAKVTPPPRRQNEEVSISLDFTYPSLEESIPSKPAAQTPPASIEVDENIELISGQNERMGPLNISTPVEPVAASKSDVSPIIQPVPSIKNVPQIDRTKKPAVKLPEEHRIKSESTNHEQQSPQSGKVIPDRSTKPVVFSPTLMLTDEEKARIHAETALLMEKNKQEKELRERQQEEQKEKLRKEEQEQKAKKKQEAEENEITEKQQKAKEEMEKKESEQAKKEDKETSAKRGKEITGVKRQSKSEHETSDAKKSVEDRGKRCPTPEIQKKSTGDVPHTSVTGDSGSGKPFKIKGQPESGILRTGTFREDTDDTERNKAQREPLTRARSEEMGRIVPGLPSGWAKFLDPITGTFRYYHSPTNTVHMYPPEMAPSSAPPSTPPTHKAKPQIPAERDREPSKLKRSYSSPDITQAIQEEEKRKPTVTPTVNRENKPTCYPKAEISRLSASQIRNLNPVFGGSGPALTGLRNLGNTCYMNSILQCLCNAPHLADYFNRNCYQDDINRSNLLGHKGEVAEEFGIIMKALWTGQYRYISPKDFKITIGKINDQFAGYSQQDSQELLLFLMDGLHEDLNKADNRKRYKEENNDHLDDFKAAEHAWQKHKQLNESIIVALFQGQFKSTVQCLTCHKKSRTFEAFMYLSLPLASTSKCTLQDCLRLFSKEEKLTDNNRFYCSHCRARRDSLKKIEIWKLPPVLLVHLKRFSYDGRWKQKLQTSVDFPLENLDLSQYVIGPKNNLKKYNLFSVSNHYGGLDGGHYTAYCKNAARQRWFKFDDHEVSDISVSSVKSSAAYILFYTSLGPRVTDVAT
COc1ccccc1CN1CCC(c2cc(=O)[nH]c(-c3cccnc3)n2)CC1 was tested, and the IC50 was > 40 µM (inactive).
O=C(Cn1c(=O)[nH]c2c(-c3ccc(F)cc3)c[nH]c2c1=O)NCc1ccc(F)cc1 was tested, and the IC50 was > 40 µM (inactive).
COc1ccc(S(=O)(=O)NC2CC(=O)N(c3ccc(Cl)cc3)C2)cc1 (stereo unspecified) was tested, and the IC50 was > 40 µM (inactive).
With O=C(Nc1ccccc1)Nc1ccc(F)c(-c2nnc(-c3ccccc3)o2)c1 the IC50 was > 40 µM (inactive).
O=S(=O)(Nc1cccc(O)c1)c1ccc2oc3ccc(S(=O)(=O)Nc4cccc(O)c4)cc3c2c1 was tested, and the IC50 was > 40 µM (inactive).
Cc1cc(C(=O)N2CCOCC2)c(C)n1-c1ccc(O)cc1 was tested, and the pIC50 was 4.64.
Cc1cccc(NC(=O)CNC(=O)c2ccc(-c3noc(C4CCCC4)n3)cc2)c1C was tested, and the IC50 was > 40 µM (inactive).
COc1ccc(C(=O)COC(=O)c2cccc(NC(=O)c3ccc(Cl)cc3)c2)cc1 was tested, and the IC50 was > 40 µM (inactive).
With COC(=O)c1cc2c(ccn2-c2ccc(F)cc2)n1CC(=O)NC1CCCCC1 the IC50 was > 40 µM (inactive).
For COc1ccc(Cl)cc1C(=O)NNC(=O)c1cc(-c2ccccc2)n[nH]1, the IC50 was > 40 µM (inactive).
In the case of O=C(C1=CSCCO1)N1CCc2ccccc2C1, the IC50 was > 40 µM (inactive).
O=C(NC1CCCC1)C1CC(=O)N(c2cccc(-c3noc(-c4cccs4)n3)c2)C1 (stereo unspecified) was tested, and the IC50 was > 40 µM (inactive).
CCOc1ccc2c(c1)c(=O)c(C(=O)c1ccc(F)cc1)cn2CC(=O)Nc1ccccc1 was tested, and the IC50 was > 40 µM (inactive).
O=C(Nc1ccc(NC(=O)c2ccccc2O)cc1)Nc1ccc(OCc2ccccc2)cc1 was tested, and the IC50 was > 40 µM (inactive).
COC(=O)c1ccc2c(=O)n(-c3ccc(C)c(F)c3)c(N3CCC(C(N)=O)CC3)nc2c1 was tested, and the IC50 was > 40 µM (inactive).
For COc1ccc(Cl)cc1NC(=O)Cn1c(=O)n(CCC(=O)NC2CCCC2)c(=O)c2ccccc21, the IC50 was > 40 µM (inactive).
Cc1cc(Cl)ccc1NC(=O)c1cc(-c2ccncc2)n[nH]1 was tested, and the IC50 was > 40 µM (inactive).
Work on COc1cn(-c2ccc(F)cc2)nc1C(=O)Nc1ccc(Cl)cc1Cl yielded a pIC50 of 4.82.
In the case of Cc1c(-c2nsc(NC(=O)c3ccc(Cl)cc3)n2)nnn1-c1ccccc1F, the IC50 was > 40 µM (inactive).
Compound N#Cc1cccc(NC(=O)c2[nH]nc3c2COc2ccccc2-3)c1 has a pIC50 of 4.42.
For O=C1CSC(c2ccc(F)cc2)c2c(n(C3CCCCCC3)[nH]c2=O)N1 (stereo unspecified), the pIC50 was 4.50.
In the case of Cc1cccc(NC(=O)CCCc2nnc3c(=O)n(-c4cccc(F)c4)ccn23)c1, the IC50 was > 40 µM (inactive).
Work on COc1cc2cc3c(c(O)c2c(O)c1-c1c(OC)cc2cc4c(c(O)c2c1O)C(=O)OC1CC(C)OC41)C(=O)OC1CC(C)OC31 (stereo unspecified) yielded a pIC50 of 6.01.
For CCCn1cc(C(=O)N2CCC3(CC2)CC2(CO3)Nc3ccccc3-n3cccc32)c(C)n1 (stereo unspecified), the pIC50 was 4.43.
For Cc1cccc(NC(=O)CSc2nc3c(cc2C#N)C(=O)CCC3)c1, the IC50 was > 40 µM (inactive).
Cc1cccc(NC(=O)Nc2ccccc2OCc2cc(=O)n3cccc(C)c3n2)c1 was tested, and the IC50 was > 40 µM (inactive).
In the case of Cn1c(=O)c2ncnnc2n(C)c1=O, the pIC50 was 6.14.
Compound CCn1cc2c(n1)c(=O)n(Cc1ccccc1)c(=O)n2CC(=O)Nc1ccc(C)cc1C has a pIC50 of 4.61.
With Cc1ccccc1-c1nc(-c2cn(CC(=O)Nc3ccccc3)cn2)no1 the IC50 was > 40 µM (inactive).
With O=C(c1cnccn1)N1CC[C@@H]2CNS(=O)(=O)[C@@H]2CC1 the IC50 was > 40 µM (inactive).
CN(C)c1ccc(CNC(=O)c2nnc(C(=O)Nc3ccccc3)s2)cc1 was tested, and the IC50 was > 40 µM (inactive).
CCc1cccc(CC)c1NC(=O)COC(=O)c1cc2cccc(OC)c2oc1=O was tested, and the IC50 was > 40 µM (inactive).
O=C(CNS(=O)(=O)c1ccc(F)cc1)N1CCCC(c2nnc3ccccn23)C1 (stereo unspecified) was tested, and the IC50 was > 40 µM (inactive).
For COC(=O)c1ccc(N2CCN(C(C)=O)CC2)c(NC(=O)COc2ccc([N+](=O)[O-])cc2)c1, the IC50 was > 40 µM (inactive).
Cc1cc(C(=O)NC2(O)C(=O)c3ccccc3C2=O)n(C)n1 showed a pIC50 of 5.09.
For O=C(NCc1ccc2c(c1)OCO2)c1cc2c(s1)CCC2, the pIC50 was 4.79.
For O=C(Nc1c2c(nn1-c1ccc([N+](=O)[O-])cc1)CSC2)c1c(F)cccc1F, the IC50 was > 40 µM (inactive).
For CCOc1ccc(NC(=O)Cn2c(=O)n(CCCCCC(=O)NCc3ccc(F)cc3)c(=O)c3sccc32)cc1, the IC50 was > 40 µM (inactive).
For Cc1cccc(C)c1NC(=O)CN1C(=O)CC(c2ccccc2)=Nc2ccccc21, the IC50 was > 40 µM (inactive).
In the case of Cc1nc(-c2ccc(C(=O)Nc3ccc(F)cc3)cc2)cs1, the IC50 was > 40 µM (inactive).
In the case of CS(=O)(=O)c1cccc(-c2nnc(NC(=O)c3ccc(Cc4ccccc4)cc3)o2)c1, the IC50 was > 40 µM (inactive).
Cc1nc(-c2noc(-c3cccc(F)c3)n2)cn1CC(=O)Nc1ccccc1 was tested, and the pIC50 was 4.41.
With CC(C)CC(=O)Nc1cc(F)c2nc(N3CCOCC3)ccc2c1 the IC50 was > 40 µM (inactive).
O=C(c1[nH]nc2c1COc1ccccc1-2)N1CCN(c2ccccn2)CC1 was tested, and the IC50 was > 40 µM (inactive).
O=C(Nc1nc(-c2ccccc2)ns1)c1ccc2ncsc2c1 was tested, and the IC50 was > 40 µM (inactive).
With COc1ccc(-c2cc3n(c(=N)c2C#N)CCc2cc4c(cc2-3)OCO4)cc1O the IC50 was > 40 µM (inactive).
For CC1(C(=O)NCc2ccc(F)cc2)Cn2nc(-c3ccco3)cc2C(=O)N1c1ccc2c(c1)OCCO2 (stereo unspecified), the IC50 was > 40 µM (inactive).
Cc1cc(OCC(=O)Nc2ccc3c(c2)NC(=O)CO3)ccc1Cl was tested, and the IC50 was > 40 µM (inactive).
In the case of O=C(Nc1cccc(Cl)c1)c1ncn2c1CNS(=O)(=O)c1ccccc1-2, the IC50 was > 40 µM (inactive).
COc1cc(OC)cc(N2C(=O)N(CC(=O)c3ccc(Br)cc3)c3ccccc3S2(=O)=O)c1 was tested, and the IC50 was > 40 µM (inactive).
In the case of CS(=O)(=O)c1ccc2nc(N(Cc3cccnc3)C(=O)c3ccc4ccccc4c3)sc2c1, the IC50 was > 40 µM (inactive).
For COc1cccc(NC(=O)C2C3C=CC4(O3)C2C(=O)N(CCc2ccc(Cl)cc2)C4C(=O)NC2CCCCC2)c1 (stereo unspecified), the IC50 was > 40 µM (inactive).
With Cc1ccc(NC(=O)Nc2nnc(CC(=O)NCc3ccccc3)s2)c(Cl)c1 the IC50 was > 40 µM (inactive).
With O=C(NCc1ccco1)c1ccc(Cn2c(=O)c3sccc3n(Cc3cc(=O)n4ccccc4n3)c2=O)cc1 the IC50 was > 40 µM (inactive).
In the case of Cc1ccc(N2CC(c3nnc(NC(=O)CCc4ccccc4)s3)CC2=O)cc1 (stereo unspecified), the IC50 was > 40 µM (inactive).
With N#Cc1ccc(NC(=O)Nc2cccn(Cc3c(F)cccc3Cl)c2=O)cc1 the IC50 was > 40 µM (inactive).
In the case of CCOc1ccc(-n2ccnc(SCC(=O)Nc3ccccc3F)c2=O)cc1, the IC50 was > 40 µM (inactive).
In the case of CCC(=O)Nc1nc2cc(NC(=O)Nc3cccc(C)c3)ccc2s1, the IC50 was > 40 µM (inactive).
O=C(Cc1ccc(-n2c(=O)c3ccccc3n(CC(=O)Nc3ccc(Cl)cc3Cl)c2=O)cc1)NCc1ccco1 was tested, and the IC50 was > 40 µM (inactive).
For CCCn1c(=O)c(-c2ccc(C(=O)NCc3ccc(OC)cc3)cc2)nc2cccnc21, the IC50 was > 40 µM (inactive).
COc1ccccc1NC(=O)CSC1=NC2(CCCCC2)Nc2ccccc21 was tested, and the IC50 was > 40 µM (inactive).
CN(C)c1cccc(-c2nnc(SCC(=O)Nc3ccc(F)cc3)n2-c2ccccc2)c1 was tested, and the IC50 was > 40 µM (inactive).
COc1cc(NC(=O)c2ccc3c(c2)OCO3)ccc1-c1cc2ccccc2oc1=O was tested, and the IC50 was > 40 µM (inactive).
In the case of Cc1ccc(Nc2nc(NCC(=O)Nc3cc(C)ccc3C)nc(Nc3ccc(C)cc3)n2)cc1, the IC50 was > 40 µM (inactive).
Compound COc1ccc(Cl)cc1NC(=O)c1cc(-c2ccccn2)n[nH]1 has a pIC50 of 4.98.
With Cc1cccc(C)c1NC(=O)Cn1c(=O)n(CCCCC(=O)NCc2ccc3c(c2)OCO3)c(=O)c2ccccc21 the IC50 was > 40 µM (inactive).
COCC(=O)N1CCC(n2c(C3CC3)nc3sc(C)c(C)c3c2=O)CC1 was tested, and the IC50 was > 40 µM (inactive).
With O=C(CCn1c(=O)c2ccccc2n(CC(=O)OCc2ccccc2)c1=O)NCc1ccc2c(c1)OCO2 the IC50 was > 40 µM (inactive).
In the case of COc1ccc(CC(=O)OCC(=O)N2c3ccccc3NC(=O)C2(C)C)cc1, the IC50 was > 40 µM (inactive).
CSc1ccc(CNC(=O)Cn2nc(C)c3c(C)n(-c4ccccc4)nc3c2=O)cc1 gave a pIC50 of 4.71.
For O=C(Nc1nnc(-c2cccc([N+](=O)[O-])c2)o1)C1CCN(S(=O)(=O)c2ccc3c(c2)CCC3)CC1, the IC50 was > 40 µM (inactive).
With O=C(c1cccnc1)N1CCN(c2cc(-c3ccccc3)[nH]n2)CC1 the IC50 was > 40 µM (inactive).
O=C(/C=C/c1ccc(F)cc1)N1CCc2ccccc2C1 was tested, and the pIC50 was 4.59.
In the case of COc1ccc2nc(-c3ccc(NC(=O)c4cccc(OC)c4OC)cc3)cn2n1, the IC50 was > 40 µM (inactive).
For Cc1ccccc1NC(=O)Cn1ccc2ccn(Cc3ccccc3)c2c1=O, the IC50 was > 40 µM (inactive).
Work on COc1ccc(C2/C(=C(\O)c3ccccc3)C(=O)C(=O)N2c2nc3ccc(F)cc3s2)cc1 (stereo unspecified) yielded a pIC50 of 4.57.
COc1cccc(Cn2cnc3c(NS(=O)(=O)c4ccc(Cl)cc4)c(C)c(C)cc32)c1 was tested, and the IC50 was > 40 µM (inactive).
With COCCCN1CCS(=O)(=O)c2c(Cl)c(F)nc(Oc3ccccc3F)c21 the IC50 was > 40 µM (inactive).
In the case of O=C(Cn1c(=O)n(Cc2ccc3c(c2)OCO3)c(=O)c2ccccc21)NCc1ccco1, the IC50 was > 40 µM (inactive).
With O=C(CSc1ccc(-c2ccccc2)nn1)Nc1ccc(F)c([N+](=O)[O-])c1 the IC50 was > 40 µM (inactive).
Work on Cc1ccc(S(=O)(=O)Nc2ccccc2C(=O)Nc2nc3ccc(Br)cc3s2)cc1 yielded a pIC50 of 4.72.
With CC(=O)Nc1ccc(Cc2nc(-c3ccc4c(c3)nc(C)c(=O)n4C3CCCC3)no2)cc1 the IC50 was > 40 µM (inactive).
With O=C(NC1CCCC1)c1ccc(-c2ccc(S(=O)(=O)NCc3ccccc3)cc2)cc1 the IC50 was > 40 µM (inactive).
In the case of O=C(c1cnc2ccccc2n1)N1CCC(S(=O)(=O)c2ccc(-c3ccco3)cc2)CC1, the IC50 was > 40 µM (inactive).
With Cc1ccc(-c2cc(C(F)F)n3ncc(C(=O)Nc4ccc(O)cc4)c3n2)cc1 the IC50 was > 40 µM (inactive).
For COc1cccc(C2c3[nH]c4ccccc4c3C[C@@H]3C(=O)N(C4CC4)CC(=O)N23)c1 (stereo partly specified), the IC50 was > 40 µM (inactive).
With Cc1ccc(-n2c(=O)c3ccc(C(=O)NCc4ccco4)cc3n(CC(=O)NCCC3=CCCCC3)c2=O)cc1 the IC50 was > 40 µM (inactive).
For Cc1cc(C)c(O)c(-c2cc(C(=O)Nc3ccccc3Cl)[nH]n2)c1, the IC50 was > 40 µM (inactive).
For COc1ccc(NC(=O)c2cc(-c3cccnc3)n[nH]2)cc1Cl, the IC50 was > 40 µM (inactive).
In the case of O=C(OC1CSc2nc3ccccc3n2C1)c1ccc([N+](=O)[O-])o1 (stereo unspecified), the pIC50 was 4.67.
For Cc1cc(NS(=O)(=O)c2ccc(NC(=O)c3ccc(N4CCCC4)c([N+](=O)[O-])c3)cc2)no1, the IC50 was > 40 µM (inactive).
